Results: PubChem BioAssay (NCI)
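Protocol summary: plate cells (96-well), add compound at 5 concentrations, incubate 48 h, interpolate endpoints linearly. Abbreviation: GI50, concentration required for 50% inhibition of growth. TGI: concentration producing complete growth inhibition.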

Assays:
Test in all cases: DTP human tumour cell line panel, 48 h
MDA-MB-435 = tested on: MDA-MB-435
IGROV1 ovarian = tested on: IGROV1 ovarian
NCI-H460 lung = tested on: NCI-H460 lung
UO-31 renal = tested on: UO-31 renal
HT29 colon = tested on: HT29 colon
HCT-116 colon = tested on: HCT-116 colon
PC-3 prostate = tested on: PC-3 prostate
MALME-3M melanoma = tested on: MALME-3M melanoma
TK-10 renal = tested on: TK-10 renal
OVCAR-5 ovarian = tested on: OVCAR-5 ovarian
RXF 393 renal = tested on: RXF 393 renal
SK-OV-3 ovarian = tested on: SK-OV-3 ovarian
SF-539 CNS = tested on: SF-539 CNS
KM12 colon = tested on: KM12 colon
SK-MEL-28 melanoma = tested on: SK-MEL-28 melanoma
NCI-H23 lung = tested on: NCI-H23 lung
U251 CNS = tested on: U251 CNS
SF-268 CNS = tested on: SF-268 CNS
T-47D breast = tested on: T-47D breast
ACHN renal = tested on: ACHN renal
MDA-MB-231 breast = tested on: MDA-MB-231 breast
OVCAR-8 ovarian = tested on: OVCAR-8 ovarian
UACC-62 melanoma = tested on: UACC-62 melanoma
RPMI-8226 leukemia = tested on: RPMI-8226 leukemia
HCC-2998 colon = tested on: HCC-2998 colon
OVCAR-4 ovarian = tested on: OVCAR-4 ovarian
DU-145 prostate = tested on: DU-145 prostate
SNB-19 CNS = tested on: SNB-19 CNS
COLO 205 colon = tested on: COLO 205 colon
EKVX NSCLC = tested on: EKVX NSCLC
HOP-62 NSCLC = tested on: HOP-62 NSCLC
HCT-15 colon = tested on: HCT-15 colon
BT-549 breast = tested on: BT-549 breast
A498 renal = tested on: A498 renal
SK-MEL-2 melanoma = tested on: SK-MEL-2 melanoma
OVCAR-3 ovarian = tested on: OVCAR-3 ovarian
HL-60(TB) leukemia = tested on: HL-60(TB) leukemia
A549 NSCLC = tested on: A549 NSCLC
NCI-H226 lung = tested on: NCI-H226 lung
SK-MEL-5 melanoma = tested on: SK-MEL-5 melanoma
MCF7 breast = tested on: MCF7 breast
SNB-75 CNS = tested on: SNB-75 CNS
NCI-H522 lung = tested on: NCI-H522 lung
UACC-257 melanoma = tested on: UACC-257 melanoma
HOP-92 NSCLC = tested on: HOP-92 NSCLC
SN12C renal = tested on: SN12C renal
M14 melanoma = tested on: M14 melanoma
CCRF-CEM leukemia = tested on: CCRF-CEM leukemia
786-0 renal = tested on: 786-0 renal
SR leukemia = tested on: SR leukemia
SF-295 CNS = tested on: SF-295 CNS
MOLT-4 leukemia = tested on: MOLT-4 leukemia
SW-620 colon = tested on: SW-620 colon
NCI/ADR-RES ovarian = tested on: NCI/ADR-RES ovarian
HS 578T breast = tested on: HS 578T breast
LOX IMVI melanoma = tested on: LOX IMVI melanoma

What does the source list for `CN1C[C@@H](c2ccc(Cl)cc2)[C@]2(NC(=S)N(c3ccc(F)c(Cl)c3)C2=O)[C@@]12C(=O)NC1C=CC(Cl)=C[C@H]12` (some centres not stated)?
GI50 (MDA-MB-435): 3.02 µM; TGI (MDA-MB-435): 11.2 µM; GI50 (IGROV1 ovarian): 3.12 µM; TGI (IGROV1 ovarian): 14.6 µM; GI50 (NCI-H460 lung): 2.44 µM; TGI (NCI-H460 lung): 6.09 µM; GI50 (UO-31 renal): 1.6 µM; TGI (UO-31 renal): 3.86 µM; GI50 (HT29 colon): 2.1 µM; TGI (HT29 colon): 4.24 µM; GI50 (HCT-116 colon): 3.12 µM; TGI (HCT-116 colon): 10.2 µM; GI50 (PC-3 prostate): 2.25 µM; TGI (PC-3 prostate): 6.42 µM; GI50 (MALME-3M melanoma): 2.81 µM; TGI (MALME-3M melanoma): 9.09 µM; GI50 (TK-10 renal): 3.48 µM; TGI (TK-10 renal): 8.06 µM; GI50 (OVCAR-5 ovarian): 2.36 µM; TGI (OVCAR-5 ovarian): 6.14 µM; GI50 (RXF 393 renal): 1.88 µM; TGI (RXF 393 renal): 3.73 µM; GI50 (SK-OV-3 ovarian): 3.09 µM; TGI (SK-OV-3 ovarian): 10.4 µM; GI50 (SF-539 CNS): 3.29 µM; TGI (SF-539 CNS): 12.2 µM; GI50 (KM12 colon): 2 µM; TGI (KM12 colon): 4.92 µM; GI50 (SK-MEL-28 melanoma): 3.61 µM; TGI (SK-MEL-28 melanoma): 12.9 µM; GI50 (NCI-H23 lung): 2.66 µM; TGI (NCI-H23 lung): 10.1 µM; GI50 (U251 CNS): 2.01 µM; TGI (U251 CNS): 4.71 µM; GI50 (SF-268 CNS): 2.89 µM; TGI (SF-268 CNS): 11.2 µM; GI50 (T-47D breast): 2.85 µM; TGI (T-47D breast): 13.6 µM; GI50 (ACHN renal): 3.07 µM; TGI (ACHN renal): 10.6 µM; GI50 (MDA-MB-231 breast): 1.88 µM; TGI (MDA-MB-231 breast): 4.27 µM; GI50 (OVCAR-8 ovarian): 2.78 µM; TGI (OVCAR-8 ovarian): 8.6 µM; GI50 (UACC-62 melanoma): 3.11 µM; TGI (UACC-62 melanoma): 12.3 µM; GI50 (RPMI-8226 leukemia): 2.72 µM; TGI (RPMI-8226 leukemia): 7.06 µM; GI50 (HCC-2998 colon): 3.85 µM; TGI (HCC-2998 colon): 13.8 µM; GI50 (OVCAR-4 ovarian): 3.75 µM; TGI (OVCAR-4 ovarian): 18.6 µM; GI50 (DU-145 prostate): 3.35 µM; TGI (DU-145 prostate): 12.6 µM; GI50 (SNB-19 CNS): 3.17 µM; TGI (SNB-19 CNS): 14.4 µM; GI50 (COLO 205 colon): 1.75 µM; TGI (COLO 205 colon): 3.46 µM; GI50 (EKVX NSCLC): 2.72 µM; TGI (EKVX NSCLC): 20.3 µM; GI50 (HOP-62 NSCLC): 3.14 µM; TGI (HOP-62 NSCLC): 12.7 µM; GI50 (HCT-15 colon): 3 µM; TGI (HCT-15 colon): 10.3 µM; GI50 (BT-549 breast): 4.62 µM; TGI (BT-549 breast): 17.1 µM; GI50 (A498 renal): 2.74 µM; TGI (A498 renal): 10.1 µM; GI50 (SK-MEL-2 melanoma): 3.08 µM; TGI (SK-MEL-2 melanoma): 10.3 µM; GI50 (OVCAR-3 ovarian): 2.12 µM; TGI (OVCAR-3 ovarian): 4.75 µM; GI50 (HL-60(TB) leukemia): 2.48 µM; TGI (HL-60(TB) leukemia): 6.02 µM; GI50 (A549 NSCLC): 3.34 µM; TGI (A549 NSCLC): 12.3 µM; GI50 (NCI-H226 lung): 1.82 µM; TGI (NCI-H226 lung): 4.72 µM; GI50 (SK-MEL-5 melanoma): 1.97 µM; TGI (SK-MEL-5 melanoma): 4.21 µM; GI50 (MCF7 breast): 2.82 µM; TGI (MCF7 breast): 12 µM; GI50 (SNB-75 CNS): 1.87 µM; TGI (SNB-75 CNS): 9.92 µM; GI50 (NCI-H522 lung): 2.84 µM; TGI (NCI-H522 lung): 10.9 µM; GI50 (UACC-257 melanoma): 3.48 µM; TGI (UACC-257 melanoma): 14.1 µM; GI50 (HOP-92 NSCLC): 2.49 µM; TGI (HOP-92 NSCLC): 7.13 µM; GI50 (SN12C renal): 1.86 µM; TGI (SN12C renal): 3.74 µM; GI50 (M14 melanoma): 2.95 µM; TGI (M14 melanoma): 10.6 µM; GI50 (CCRF-CEM leukemia): 4.13 µM; TGI (CCRF-CEM leukemia): 18.6 µM; GI50 (786-0 renal): 2.08 µM; TGI (786-0 renal): 4.82 µM; GI50 (SR leukemia): 2.79 µM; TGI (SR leukemia): 7.18 µM; GI50 (SF-295 CNS): 1.89 µM; TGI (SF-295 CNS): 4.46 µM; GI50 (MOLT-4 leukemia): 2.87 µM; TGI (MOLT-4 leukemia): 14.6 µM; GI50 (SW-620 colon): 3.19 µM; TGI (SW-620 colon): 13.1 µM; GI50 (NCI/ADR-RES ovarian): 2.54 µM; TGI (NCI/ADR-RES ovarian): 8.97 µM; GI50 (HS 578T breast): 2.96 µM; TGI (HS 578T breast): 16.7 µM; GI50 (LOX IMVI melanoma): 1.7 µM; TGI (LOX IMVI melanoma): 3.33 µM
